The test relates to ATF4. As to the kind of experiment: Inhibition of ATF4, downstream factor of ISR, in HT-1080 cells, Western blot (FIG. 1). It counts as cell-based, human. As to conditions: amino acid deficiency, compound 50 nM, 24 hours. Here is the method:
<Experimental Example 5> Evaluation of Inhibitory Efficacy of ISR-Related Kinase GCN2 Under Amino Acid Deficiency Condition Using Western Blot
HT-1080 cells, a human fibrosarcoma cell line, were cultured in RPMI-1640 medium supplemented with 10% FBS, penicillin (penicillin; 100 IU/ml), and streptomycin (streptomycin; 100 μg/ml). Cells (1×10^6 cells/ml) were seeded onto 100 mm plates (polypropylene tissue culture plate) and incubated for 24 hours in a 37° C., 5% CO2 incubator before being used for experiments.
The following method was used to achieve amino acid deficiency conditions in cells. After 24 hours of cell culture, the cells were cultured in amino acids and L-glutamine-free RPMI-1640 medium supplemented with 10% FBS, penicillin (100 IU/ml), and streptomycin (100 μg/ml). After 24 hours of cell culture in RPMI-1640 without amino acids and L-glutamine, the compound prepared at a concentration of 50 nM was dispensed onto each plate and cultured for 24 hours in a 37° C., 5% CO2 incubator.
In order to measure the signal transduction inhibitory efficacy of GCN among the ISR-related kinases according to the present invention, the following experiment was performed using SDS-PAGE. The fibrosarcoma cell line HT-1080 cells cultured on plates as described above were washed with PBS after removing the culture medium. After removing PBS, the cells were lysed by adding a radio-immunoprecipitation assay buffer (RIPA buffer) containing 50 mM Tris (pH 7.4), 150 mM NaCl, 1% NP-40, 0.5% sodium deoxycholate, 2 mM sodium fluoride, 2 mM EDTA, 0.1% SDS, and a protease/phosphatase inhibitor cocktail to the plate. After centrifugation at 4° C., 13,000×g for 15 minutes, the protein in the upper layer was collected, and the protein concentration was measured at 562 nm using BCA (bicinchoninc acid) reagent, and the amount of protein in all samples was prepared at 20-50 μg.
After making the total volume the same using the sample buffer and RIPA buffer, it was heated at 97° C. for 5 minutes. Then, electrophoresis was performed on 8% or 12% SDS-PAGE at 80 V for 30 minutes and at 160 V for 1 hour and 30 minutes. After electrophoresis, the SDS-PAGE gel was transferred to an NC membrane (nitrocellulose membrane) at 90 V for 2 hours. The NC membrane was placed in TBST (tris buffer saline tween-20; 20 mM tris, 137 mM sodium chloride, 0.1% tween-20, pH 8.0) containing 5% non-fat skim milk, placed on a shaker, and reacted at room temperature for 1 hour.
Each primary antibody was diluted in TBST containing 5% non-fat skim milk, poured onto the NC membrane, and reacted at 4° C. for 24 hours. The membrane was washed three times for 10 minutes each with TBST. The secondary antibodies (anti-rabbit IgG and anti-mouse IgG labeled with horseradish peroxidase (HRP)) were diluted in TBST containing 5% non-fat skim milk and reacted with the membrane at room temperature for 1 hour. Upon completion of the reaction, the membrane was washed three times with TBST for 10 minutes each. Protein expression bands were detected by a chemiluminescence image analyzer (Image Quant LAS 500) after the ECL solution was reacted with the NC membrane.
FIG. 1 is a set of photographs confirming the mechanism proteins that react upon ISR activation, wherein the numbers correspond to example numbers of the present invention. […] They are also known to have an effect on increasing the expression of CHOP (GADD153), the most downstream factor of the mechanism. […] Thus, in addition to the activation of ISR by amino acid deficiency, a significant effect can be expected on the mechanism of inhibition of the activity of PERK, an ISR-related kinase, due to endoplasmic reticulum stress response.
In general terms: In western blotting, separated proteins are transferred to a membrane and probed.
Take `COc1ncc(Cl)cc1S(=O)(=O)Nc1ccc(F)c(-n2cc(C(F)F)c3nc(N)ncc3c2=O)c1F` [Example 22, N-(3-(2-amino-8-(difluoromethyl)-5-oxopirido[4,3-d]pyrimidin-6(5H)-yl)-2,4-difluorophenyl)-5-chloro-2-methoxypyridine-3-sulfonamide]: the “inhibitory effect on ATF4 (FIG. 1)” value is “excellent inhibitory effects”.

Take `Nc1ncc2c(=O)n(-c3c(F)ccc(NS(=O)(=O)c4cccc5ccccc45)c3F)ccc2n1` [Example 29, N-(3-(2-amino-5-oxopirido[4,3-d]pyrimidin-6(5H)-yl)-2,4-difluorophenyl)naphthalene-1-sulfonamide]: the “inhibitory effect on ATF4 (FIG. 1)” value is listed as “excellent inhibitory effects”.

For the molecule `COc1ncc(Cl)cc1S(=O)(=O)Nc1ccc(F)c(-n2c(=O)c3cnc(N)nc3n(C)c2=O)c1F` [Example 44, N-(3-(7-amino-1-methyl-2,4-dioxo-1,4-dihydropyrimido[4,5-d]pyrimidin-3(2H)-yl)-2,4-difluorophenyl)-5-chloro-2-methoxypyridine-3-sulfonamide], the “inhibitory effect on ATF4 (FIG. 1)” value is “excellent inhibitory effects”.

In the case of `COc1ncc(Br)cc1S(=O)(=O)Nc1ccc(F)c(-n2c(=O)c3cnc(N)nc3n(C)c2=O)c1F` [Example 46, N-(3-(7-amino-1-methyl-2,4-dioxo-1,4-dihydropyrimido[4,5-d]pyrimidin-3(2H)-yl)-2,4-difluorophenyl)-5-bromo-2-methoxypyridine-3-sulfonamide], the “inhibitory effect on ATF4 (FIG. 1)” value is listed as “excellent inhibitory effects”.

Source of the values: patent US20260184706A1, “PHENYLSULFONAMIDE DERIVATIVES, PREPARATION METHOD THEREFOR, AND PHARMACEUTICAL COMPOSITION FOR PREVENTION OR TREATMENT OF CANCER CONTAINING SAME AS ACTIVE INGREDIENT” (Korea Research Institute of Chemical Technology, priority 2022, published 2026).
